Results as given in patent US20250206730A1 (AUTOTELIC BIO INC., priority 2022, published 2025).

tested on: TGF-β signaling; experiment: Assay for evaluating cellular inhibition of TGF-β signaling, HEK293 (SBE reporter) luciferase reporter; type: cell-based; settings: Homo sapiens; HEK293 (SBE reporter) stable cells, 0.5% FBS, 2 h pre-treatment, TGF-β1 2 ng/mL 24 h; read-out: IC50 HEK 293 Cell
Method: [Example 2] Assay for Evaluating Cellular Inhibition of TGF-β Signaling
4T1 (SBE-luc2P) transient pool that have SBE-luc2P (hygro) expression plasmid or HEK293 (SBE reporter) stable cells (BPS bioscience) were seeded at 6×10^3 cells/well or 2.5×10^4 cells/well in 96-well plate, respectively. 4T1 (SBE-luc2P) transient pool were pre-treated with novel compound synthesized in Example 1 above in 0.2% FBS at approximately 60% confluence at 37° C. in 5% CO2. Also, HEK293 (SBE reporter) stable cells were pre-treated with each test compounds of formula in 0.5% FBS at approximately 80% confluence at 37° C. in 5% CO2. After 2 hours, cells were treated with TGF-β1 (2 ng/mL) for 24 h at 37° C. in 5% CO2. Cell lysates were prepared using Luciferase Assay (Promega) according to the manufacturer's instruction, and luminescence was measured by a plate reader, Biotek Synergy H1 (Vermont, USA).

| Structure (SMILES) | IC50 |
| --- | --- |
| CCc1nc(-c2cccc(C)n2)c(Oc2ccnc(Nc3cccc(NS(C)(=O)=O)c3)c2)s1 [A-272, N-(3-((4-((2-ethyl-4-(6-methylpyridin-2-yl)thiazol-5-yl)oxy)pyridin-2-yl)amino)phenyl)methanesulfonamide] | < 100 nM |
| CCc1nc(-c2ccccc2)c(Oc2ccnc(Nc3ccc(C(N)=O)cn3)n2)s1 [A-245, 6-((4-((2-Ethyl-4-phenylthiazol-5-yl)oxy)pyrimidin-2-yl)amino)nicotinamide] | > 100 nM |
| O=C(O)c1cccc(Nc2cc(Oc3oc(C4CC4)nc3-c3ccccc3)ccn2)n1 [A-301, 6-((4-((2-Cyclopropyl-4-phenyloxazol-5-yl)oxy)pyridin-2-yl)amino)picolinic acid] | < 100 nM |
| CCc1nc(-c2ccccc2)c(Oc2ccnc(Nc3ccc(NCCN4CCCC4)cn3)c2)s1 [A-210, N^2-(4-((2-Ethyl-4-phenylthiazol-5-yl)oxy)pyridin-2-yl)-N^5-(2-(pyrrolidin-1-yl)ethyl)pyridine-2,5-diamine] | < 100 nM |
| O=C(O)c1cccc(Nc2cc(Oc3oc(C4CC4)nc3-c3ccccc3)ccn2)c1 [A-300, 3-((4-((2-Cyclopropyl-4-phenyloxazol-5-yl)oxy)pyridin-2-yl)amino)benzoic acid] | < 100 nM |
| CCc1nc(-c2ccccc2)c(Oc2ccnc(Nc3cc(C(N)=O)ccn3)n2)s1 [A-242, 2-((4-((2-Ethyl-4-phenylthiazol-5-yl)oxy)pyrimidin-2-yl)amino)isonicotinamide] | > 100 nM |
| CCc1nc(-c2ccccc2)c(Oc2ccnc(Nc3ccc(N4CCC(NC)C4)cc3)c2)s1 (stereo not shown) [A-215, 4-((2-Ethyl-4-phenylthiazol-5-yl)oxy)-N-(4-(3-(methylamino)pyrrolidin-1-yl)phenyl)pyridin-2-amine] | < 100 nM |
| CCc1nc(-c2ccccc2)c(Oc2ccnc(Nc3ccc(C(=O)NCCN4CCN(CC)CC4)cn3)c2)s1 [A-203, 6-((4-((2-Ethyl-4-phenylthiazol-5-yl)oxy)pyridin-2-yl)amino)-N-(2-(4-ethylpiperazin-1-yl)ethyl)nicotinamide] | < 100 nM |
| CCc1nc(-c2ccccc2)c(Oc2ccnc(Nc3cccc(C(N)=O)c3)n2)s1 [A-243, 3-((4-((2-Ethyl-4-phenylthiazol-5-yl)oxy)pyrimidin-2-yl)amino)benzamide] | < 100 nM |
| CCc1nc(-c2ccccc2)c(Oc2ccnc(Nc3ccc(C(=O)NCCN4CCN(C(C)C)CC4)cn3)c2)s1 [A-202, 6-((4-((2-Ethyl-4-phenylthiazol-5-yl)oxy)pyridin-2-yl)amino)-N-(2-(4-isopropylpiperazin-1-yl)ethyl)nicotinamide] | < 100 nM |
| CCc1nc(-c2cccc(C)n2)c(Oc2ccnc(Nc3ccc(C(=O)Nc4cc(F)cc(C(=O)OCCN(C)C)c4)cn3)c2)s1 [A-273, 2-(Dimethylamino)ethyl 3-(6-((4-((2-ethyl-4-(6-methylpyridin-2-yl)thiazol-5-yl)oxy)pyridin-2-yl)amino)nicotinamido)-5-fluorobenzoate] | > 100 nM |
| CNC(=O)c1cccc(Nc2cc(Oc3sc(C4CC4)nc3-c3cccc(C)n3)ccn2)c1 [A-281, 3-((4-((2-Cyclopropyl-4-(6-methylpyridin-2-yl)thiazol-5-yl)oxy)pyridin-2-yl)amino)-N-methylbenzamide] | < 100 nM |
| CNC(=O)c1cccc(Nc2cc(Oc3oc(C4CC4)nc3-c3ccccc3)ccn2)n1 [A-302, 6-((4-((2-Cyclopropyl-4-phenyloxazol-5-yl)oxy)pyridin-2-yl)amino)-N-methylpicolinamide] | < 100 nM |

Now from value to compound:

| IC50 | Structure (SMILES) |
| --- | --- |
| < 100 nM | CCc1nc(-c2ccccc2)c(Oc2ccnc(Nc3ccc(-c4cn[nH]c4)cn3)c2)s1 [A-213, N-(5-(1H-Pyrazol-4-yl)pyridin-2-yl)-4-((2-ethyl-4-phenylthiazol-5-yl)oxy)pyridin-2-amine] |
| < 100 nM | NC(=O)c1cccc(Nc2cc(Oc3oc(C4CC4)nc3-c3ccccc3)ccn2)n1 [A-299, 6-((4-((2-Cyclopropyl-4-phenyloxazol-5-yl)oxy)pyridin-2-yl)amino)picolinamide] |
| < 100 nM | NC(=O)c1cccc(Nc2cc(Oc3oc(C4CC4)nc3-c3ccccc3)ccn2)c1 [A-296, 3-((4-((2-Cyclopropyl-4-phenyloxazol-5-yl)oxy)pyridin-2-yl)amino)benzamide] |
| < 100 nM | CCc1nc(-c2ccccc2)c(Oc2ccnc(Nc3ccc(C(=O)O)cc3)n2)s1 [A-246, 4-((4-((2-Ethyl-4-phenylthiazol-5-yl)oxy)pyrimidin-2-yl)amino)benzoic acid] |
| < 100 nM | CCc1nc(-c2ccccc2)c(Oc2ccnc(Nc3ccc(NCCN4CCCC4)cc3)c2)s1 [A-208, N^1-(4-((2-Ethyl-4-phenylthiazol-5-yl)oxy)pyridin-2-yl)-N^4-(2-(pyrrolidin-1-yl)ethyl)benzene-1,4-diamine] |
| < 100 nM | CNC(=O)c1ccc(Nc2cc(Oc3sc(C4CC4)nc3-c3cccc(C)n3)ccn2)nc1 [A-282, 6-((4-((2-Cyclopropyl-4-(6-methylpyridin-2-yl)thiazol-5-yl)oxy)pyridin-2-yl)amino)-N-methylnicotinamide] |
| < 100 nM | CCc1nc(-c2ccccc2)c(Oc2ccnc(Nc3ccc(C(=O)NCCN4CCCC4)cn3)c2)s1 [A-199, 6-((4-((2-Ethyl-4-phenylthiazol-5-yl)oxy)pyridin-2-yl)amino)-N-(2-(pyrrolidin-1-yl)ethyl)nicotinamide] |
| > 100 nM | CCc1nc(-c2ccccc2)c(Oc2ccnc(Nc3ccc(C(=O)O)cn3)n2)s1 [A-244, 6-((4-((2-Ethyl-4-phenylthiazol-5-yl)oxy)pyrimidin-2-yl)amino)nicotinic acid] |
| < 100 nM | CCc1nc(-c2ccccc2)c(Oc2ccnc(Nc3ccc(NCCN4CCN(CC)CC4)cc3)c2)s1 [A-207, N^1-(4-((2-Ethyl-4-phenylthiazol-5-yl)oxy)pyridin-2-yl)-N^4-(2-(4-ethylpiperazin-1-yl)ethyl)benzene-1,4-diamine] |
| < 100 nM | CCc1nc(-c2ccccc2)c(Oc2ccnc(Nc3ccc(NCCN4CCN(C)CC4)cc3)c2)s1 [A-206, N^1-(4-((2-Ethyl-4-phenylthiazol-5-yl)oxy)pyridin-2-yl)-N^4-(2-(4-methylpiperazin-1-yl)ethyl)benzene-1,4-diamine] |
| < 100 nM | NS(=O)(=O)c1cccc(Nc2cc(Oc3oc(C4CC4)nc3-c3ccccc3)ccn2)c1 [A-298, 3-((4-((2-Cyclopropyl-4-phenyloxazol-5-yl)oxy)pyridin-2-yl)amino)benzenesulfonamide] |
| < 100 nM | CCc1nc(-c2ccccc2)c(Oc2ccnc(Nc3ccc(N4CCC(N)C4)cc3)c2)s1 (stereo not shown) [A-214, N-(4-(3-Aminopyrrolidin-1-yl)phenyl)-4-((2-ethyl-4-phenylthiazol-5-yl)oxy)pyridin-2-amine] |
| < 100 nM | CCc1nc(-c2ccccc2)c(Oc2ccnc(Nc3cccc(C(N)=O)n3)n2)s1 [A-241, 6-((4-((2-Ethyl-4-phenylthiazol-5-yl)oxy)pyrimidin-2-yl)amino)picolinamide] |
| < 100 nM | CCc1nc(-c2ccccc2)c(Oc2ccnc(Nc3ccc(NCCN4CCN(C(C)C)CC4)cn3)c2)s1 [A-212, N^2-(4-((2-Ethyl-4-phenylthiazol-5-yl)oxy)pyridin-2-yl)-N^5-(2-(4-isopropylpiperazin-1-yl)ethyl)pyridine-2,5-diamine] |
| < 100 nM | CCc1nc(-c2ccccc2)c(Oc2ccnc(Nc3ccc(C(=O)NC(C)C)cn3)c2)s1 [A-196, 6-((4-((2-Ethyl-4-phenylthiazol-5-yl)oxy)pyridin-2-yl)amino)-N-isopropylnicotinamide] |
